Among the test systems are 786-0 renal; COLO 205 colon; DU-145 prostate; EKVX NSCLC; MALME-3M melanoma; OVCAR-8 ovarian; SK-MEL-28 melanoma; SNB-19 CNS; SNB-75 CNS; U251 CNS.
What all share (assay): inhibition of tumour cell growth, NCI panel, 48 h

Values joined by “and” are separate entries in the source; they are usually repeats but may differ in a detail not shown here. Identical values can stand only once.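 The compound was tested at five concentrations on cells cultured in 96-well plates, with a 48-hour exposure period. GI50: concentration for 50% inhibition of growth. Definition used: TGI = concentration required for complete inhibition of growth.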 A value given as a limit tells only on which side of the number the result lay.

On to `Cn1cc(-c2csc(-c3cn(C(=O)OC(C)(C)C)c4ccccc34)n2)c2cccnc21`, for which the GI50 in the test on 786-0 renal is 4.92 µM; in the test with COLO 205 colon it was 2.97 µM; with DU-145 prostate, 5.17 µM; with EKVX NSCLC, 7.12 µM; with MALME-3M melanoma, 14.6 µM; in the test with OVCAR-8 ovarian, 6.03 µM. For the same compound, the GI50 in the test on SK-MEL-28 melanoma is 10.2 µM; in the test with SNB-19 CNS, 10.4 µM; in the test on SNB-75 CNS it was 1.7 µM; in the test on U251 CNS, 4.23 µM. In addition, the TGI in the test with 786-0 renal turned out to be 16.4 µM; with COLO 205 colon it was 14.6 µM; with DU-145 prostate it was 21.6 µM; in the test on EKVX NSCLC, 33.7 µM; with MALME-3M melanoma, 40.8 µM; in the test with OVCAR-8 ovarian, 33.9 µM. Besides, the TGI with SK-MEL-28 melanoma was 33.3 µM; in the test on SNB-19 CNS, 30.1 µM; in the test on SNB-75 CNS, 8.63 µM; with U251 CNS, 16.3 µM.
In the case of `COC(=O)Nc1nc2ccc(C(=O)c3cccs3)cc2[nH]1`, the GI50 with 786-0 renal was 0.261 µM; in the test with EKVX NSCLC it was 0.584 µM; with MALME-3M melanoma, 0.296 µM; in the test on OVCAR-8 ovarian, 0.487 µM; in the test with SK-MEL-28 melanoma, 0.376 µM; in the test with SNB-19 CNS it was 0.359 µM. Besides, the GI50 is < 0.0192 µM and 0.171 µM in the test on SNB-75 CNS; 0.147 µM with U251 CNS. Also, the TGI with 786-0 renal was 29.8 µM and > 100 µM; in the test with COLO 205 colon, 2.09 µM; in the test with DU-145 prostate, 1.5 µM; in the test with EKVX NSCLC, 15.2 µM and > 100 µM; in the test with MALME-3M melanoma, 43.5 µM and > 100 µM; in the test with OVCAR-8 ovarian, 15.7 µM and > 100 µM. Further, the TGI in the test with SK-MEL-28 melanoma was 61.8 µM and > 100 µM; in the test on SNB-19 CNS it was 42.5 µM and > 100 µM; with SNB-75 CNS, greater than 100 µM.
Take `NC1=C(O)C(=O)C(c2c[nH]c3ccc(OCc4ccccc4)cc23)O1` (configuration not stated): the TGI in the test with 786-0 renal, in the test with COLO 205 colon, with DU-145 prostate, with EKVX NSCLC, with MALME-3M melanoma and in the test with OVCAR-8 ovarian was greater than 100 µM throughout. Also, the TGI with SK-MEL-28 melanoma is greater than 100 µM; with SNB-19 CNS, greater than 100 µM; in the test on SNB-75 CNS it was greater than 91.3 µM; with U251 CNS, greater than 100 µM.
Take `O=C(/C=C/c1ccc(Cl)cc1Cl)c1ccc(Cl)cc1Cl`: the GI50 was 22 µM in the test on 786-0 renal; 20.8 µM in the test on COLO 205 colon; 29.5 µM in the test with DU-145 prostate; 20.6 µM in the test with EKVX NSCLC; 13.9 µM in the test on MALME-3M melanoma; 16.6 µM in the test on OVCAR-8 ovarian. Also, the GI50 with SK-MEL-28 melanoma was 27.2 µM; in the test on SNB-19 CNS, 29 µM; with SNB-75 CNS, 40.5 µM; in the test on U251 CNS, 14.1 µM. The TGI was 61.8 µM in the test with 786-0 renal; greater than 65.4 µM in the test with COLO 205 colon; greater than 100 µM with DU-145 prostate; 58.7 µM in the test with EKVX NSCLC; 35.6 µM in the test with MALME-3M melanoma; 39.6 µM in the test on OVCAR-8 ovarian. Also, the TGI in the test on SK-MEL-28 melanoma was greater than 74.4 µM; in the test on SNB-19 CNS, greater than 100 µM; in the test with SNB-75 CNS it was greater than 100 µM; in the test with U251 CNS, 34.1 µM.
In the case of `COc1ccc(/C=C/C(=O)c2ccc(Nc3nc(Nc4ccc(F)cc4)nc(Nc4ccc(F)cc4)n3)cc2)cc1`, the GI50 in the test with 786-0 renal was 6.03 µM; with COLO 205 colon, 9.57 µM; with DU-145 prostate it was 40.2 µM; with EKVX NSCLC, 23.9 µM; in the test on MALME-3M melanoma it was 8.94 µM; in the test with OVCAR-8 ovarian, 8.49 µM. Besides, the GI50 was 56.8 µM in the test on SK-MEL-28 melanoma, 30.9 µM with SNB-19 CNS, 30.6 µM in the test with SNB-75 CNS and 16.7 µM in the test with U251 CNS. Besides, the TGI in the test on 786-0 renal is 26.9 µM; in the test with COLO 205 colon, 29.6 µM; with DU-145 prostate, greater than 100 µM; in the test with EKVX NSCLC it was greater than 100 µM; with MALME-3M melanoma it was 46.6 µM; in the test on OVCAR-8 ovarian, 30.1 µM. For the same compound, the TGI is greater than 100 µM in the test with SK-MEL-28 melanoma, greater than 100 µM in the test on SNB-19 CNS, greater than 100 µM with SNB-75 CNS and 56.2 µM in the test on U251 CNS.
For the compound `CCN(CC)CCNc1ccc([N+](=O)[O-])c2nc3ccc(OC)cc3c(N)c12`, the TGI is 1.66 µM with 786-0 renal; 1.65 µM in the test with COLO 205 colon; 3.07 µM with DU-145 prostate; 3.28 µM in the test on EKVX NSCLC; 3.61 µM in the test on MALME-3M melanoma; 3.45 µM with OVCAR-8 ovarian. Also, the TGI with SK-MEL-28 melanoma was 3.37 µM; with SNB-19 CNS, 3.29 µM; in the test with SNB-75 CNS, 3.64 µM; with U251 CNS, 3.06 µM.
For `CNC(=O)c1cc(-c2ccc(F)cc2)cc(-c2ccc(S(=O)(=O)N3CCCC3)cc2)c1N`, the GI50 in the test with 786-0 renal was 24.4 µM; with COLO 205 colon it was 23.5 µM; in the test with DU-145 prostate it was greater than 25 µM; with EKVX NSCLC, 10.2 µM; in the test on MALME-3M melanoma, greater than 25 µM; in the test on OVCAR-8 ovarian, greater than 25 µM. Also, the GI50 was greater than 25 µM in the test on SK-MEL-28 melanoma, greater than 25 µM in the test on SNB-19 CNS, 12.7 µM in the test with SNB-75 CNS and 15.1 µM with U251 CNS. For the same compound, the TGI in the test with 786-0 renal, with COLO 205 colon, in the test with DU-145 prostate, in the test with EKVX NSCLC, with MALME-3M melanoma and in the test with OVCAR-8 ovarian was greater than 25 µM each time. For the same compound, the TGI with SK-MEL-28 melanoma, in the test with SNB-19 CNS, in the test with SNB-75 CNS and in the test on U251 CNS was greater than 25 µM throughout.
